Results: US20260234188A1, “CHEMOKINE-BINDING PEPTIDES” (Oxford University Innovation Limited, priority 2022, published 2026)
“Also recorded” adds a separate entry of the source.

System: panel of up to 42 human chemokines
Assay: Phage-display next generation sequencing screen of overlapping hexadecapeptide libraries, chemokines displayed on streptavidin beads
Format: binding
From the text: FIG. 1. Exemplar results from phage display screens. Phage-display libraries were constructed and analysed as described in (McLaughlin, 2013) (Tonikian, 2007). […] FIG. 1A, CC chemokines against evasin A library. FIG. 1B, CXC chemokines against the evasin B library. FIG. 1C, CXC and CX3C chemokines against the viral chemokine binding protein library. FIG. 1D, CXC chemokines against the chemokine library. […] Identified hexadecapeptides were mapped to the position in the originating protein (x-axis) and to fold enrichment (log 2 E, left y-axis). Regions of interest (ROI) were defined where the cumulative residue log 2 E, (clog 2 E:r, right y-axis) exceeds the 95% upper confidence interval of the median clog 2 E:r for the entire protein (indicated as a horizontal dotted line in each panel). Proteins are referred to by their UniProt ID.
Hexadecapeptides were identified using a phage-display next generation sequencing approach (McLaughlin, 2013). Libraries containing a total of 55662 overlapping peptides (from the tick chemokine binding proteins shown in Tables 3A and 3B, the viral chemokine binding proteins shown in Table 3C, the human chemokines shown in Table 3 E, and the human/viral chemokine receptors and other chemokine-binding proteins shown in Table 3D) were first constructed, and then screened against a panel of up to 42 human chemokines, as shown in Table 3F.

[1] = log2E greater than 5, chemokines named by first part of UniProt Entry Name
[2] = log2E greater than 5, chemokines named by first part of UniProt Entry Name, peptides binding complement C5a (control) excluded
[3] = log2E greater than 5, chemokines named by first part of UniProt entry name, C5a (control) binders excluded

| Substance | Chemokines Bound [1] | Chemokines Bound [3] | also measured |
| --- | --- | --- | --- |
| CR5171 (FGVVTSVITWLVAVFA) | CCL11, CCL17, and CCL18, CCL2, and CCL20, CCL22, and CCL25, CCL28, and X3CL1, CXL10, and CXL11, SDF1, and CXL13, CXL14, and IL8 |  |  |
| CR7814 (GVVTSVITWLVAVFAS) |  |  | Chemokines Bound [2]: CCL11, CCL2, and CCL22, CCL8, and IL8 |
| CR18955 (RFRQYLKAFLAAVLGW) |  | CCL17, CCL18,; also recorded: CXL14 |  |
| CR25001 (VITWLVAVFASVPGII) | CCL1, CCL19,; also recorded: CCL2, CXL11,; also recorded: CXL14 |  |  |
| CR23002 (TIWLVGFLLALPEILF) | CCL17, CCL18, and CCL19, CCL20, and CCL25, CCL28, and X3CL1, SDF1, and CXL13, CXL14, and IL8 |  |  |
| CR20273 (SESALAFIYVLMFLCN) |  | CCL18, CCL19,; also recorded: CCL20, CXL14 |  |
| VP7819 (RLEELYLTVASMFERL) |  |  | Chemokines Bound [2]: CCL1, CCL11,; also recorded: CCL17, CCL19,; also recorded: CCL2, CCL22,; also recorded: CCL28, CXL10 |
| CR2524 (CFLWGIFPTVIFSYFY) | CCL22, CCL25, and CXL13, CXL14, and IL8 |  |  |
| CR27051 (YDLFIGIKIVYSFLWG) | CCL18, CCL2,; also recorded: CCL20, CCL25,; also recorded: CCL28, CXL10,; also recorded: CXL11, CXL14 |  |  |
| CR9887 (ISLFAGVSFLINLSMD) |  |  | Chemokines Bound [2]: CCL17, CCL18,; also recorded: CCL25 |
| CR22658 (TENFEYDDLAEACYIG) |  | CCL17, CCL18,; also recorded: X3CL1 |  |
| CR1003 (ALAFIYVLMFLANAIG) |  | CCL17, CCL18, and CCL19, CCL20, and CCL28, X3CL1, and CXL10, SDF1, and IL8 |  |
| CR21349: chemokine binding peptide of Table 5A used in FIG. 5 combinations (SNVTFTGLISAFSWFM) |  | CCL11, CCL2,; also recorded: CCL3, CCL4,; also recorded: CCL5, CCL8 |  |
| CR18933 (RFGVWLMSIVGTFLNM) |  | CCL28, CXL10, and IL8 |  |
| CR4802 (FCALVTLITSLFGSIF) | CCL11, CCL17,; also recorded: CCL18, CCL19,; also recorded: CCL20, CCL22,; also recorded: CCL25, CCL28,; also recorded: CCL8, X3CL1,; also recorded: CXL10, CXL11,; also recorded: SDF1, CXL13,; also recorded: CXL14, IL8 |  |  |
| CR9282 (ILAFFAAWLPYYIGIS) |  |  | Chemokines Bound [2]: CCL11, CCL18,; also recorded: X3CL1, CXL10,; also recorded: CXL11, CXL13 |
| CR12569 (LGVWLMAIVGTFLNVL) |  | CCL2, X3CL1,; also recorded: CXL10, CXL11 |  |
| CR25151 (VLGDFLCKLLNMIFSI) | CCL18, CCL2, and CCL28, X3CL1, and CXL10, CXL14, and IL8 |  |  |

| Substance | Chemokines Bound [1] | Chemokines Bound [3] | also measured |
| --- | --- | --- | --- |
| CR26309 (VWLMSIVGTFLNMLVI) | CCL18, CXL10,; also recorded: CXL11, CXL13,; also recorded: CXL14 |  |  |
| CR3373 (DLTNWKLLAEIYEYLF) | CCL2, CCL22, and CCL28, CXL10, and CXL11, SDF1, and CXL13, CXL14, and IL8 |  |  |
| CR1124 (ALIQMLEICIGFVVPF) |  | CCL18, CCL19,; also recorded: CCL20 |  |
| CR19826 (RVTLTSLAVWGLSLLF) |  | CCL17, CCL2,; also recorded: X3CL1, CXL14 |  |
| CR1325 (ALYSLLFLLGLLGNGA) |  | CCL17, CCL19,; also recorded: CCL2, CCL20,; also recorded: CCL22, CXL11,; also recorded: CXL14 |  |
| CR7344 (GMGPGPWMNILWAWFI) |  |  | Chemokines Bound [2]: CCL1, CCL11,; also recorded: CCL17, CCL18,; also recorded: CCL19, CCL2,; also recorded: CCL20, CCL22,; also recorded: CCL25, CCL8,; also recorded: X3CL1, CXL10,; also recorded: CXL11, SDF1,; also recorded: CXL14, IL8 |
| CK2307 (IVRNFHYLLIKDGSRV) |  | CCL19, CCL20,; also recorded: CCL22 |  |
| CR23112 (TLFASDFVLMWCVFFM) | CCL17, CCL19,; also recorded: CCL20, CCL22,; also recorded: CCL8, X3CL1 |  |  |
| CR24960 (VIMMTWFYAFFYSTVQ) | CCL1, CCL17,; also recorded: CCL18, CCL2,; also recorded: CCL22, CCL25,; also recorded: CCL28, CCL5,; also recorded: X3CL1, CXL11,; also recorded: CXL13, IL8 |  |  |
| CR9087 (IIALVVWGLSVIISSS) |  |  | Chemokines Bound [2]: CCL1, CCL17,; also recorded: CCL18, CCL19,; also recorded: CCL2, CCL20,; also recorded: CCL22, CCL25,; also recorded: CCL28, X3CL1,; also recorded: CXL10, CXL11,; also recorded: SDF1, CXL13,; also recorded: CXL14, IL8 |
| CR23947 (TVKLIFAIVVAYFLSW) | CCL17, CCL20,; also recorded: CCL22, CCL28,; also recorded: SDF1, CXL14 |  |  |
| CR8126 (HIGYFGGIFFIILLTI) |  |  | Chemokines Bound [2]: CCL18, CCL22, and CCL25, CXL11, and IL8 |
| CR14548 (LTGFLFYLNMYASIYF) |  | CCL18, CCL19, and CCL22, CCL28, and CXL10, CXL11, and SDF1, CXL13, and IL8 |  |
| CR13967 (LPTMVFSFFYVIFSKA) |  | CCL1, CCL17,; also recorded: CCL18, CCL19,; also recorded: CCL20, CCL28,; also recorded: CXL10 |  |
| CR5172 (FGVVTSVITWVVAVFA) | CCL1, CCL18, and CXL10, SDF1, and IL8 |  |  |
| CR4205 (ELFLAVKIVFSFIWGV) | CCL11, CCL17,; also recorded: CCL18, CCL19,; also recorded: CCL2, CCL20,; also recorded: CCL22, CCL25,; also recorded: CCL28, X3CL1,; also recorded: CXL10, CXL11,; also recorded: SDF1, CXL13,; also recorded: CXL14, IL8 |  |  |
| VP988 (CIILLVYVYATFATKG) |  |  | Chemokines Bound [2]: CCL1, CCL8,; also recorded: X3CL1, CXL10,; also recorded: CXL11 |
